# Experimental data taken from paper PMC12612047 (Nature Communications, 2025).
# Tested on: CLMB-FLAG S-acylation in HEK293 Flp-In TReX cells
# Test: Metabolic pulse-chase labeling assay of dynamic CLMB S-acylation
# Assay type: cell-based
# Conditions: 30-min chase
smiles,measurement,value
"CCCCCCCCCC[C@@H]1C(=O)O[C@H]1CCc1ccc(OC)c(OC)c1 [PalmB, palmostatin B]","increase of palmitate incorporation into CLMB (17-ODYA to L-AHA ratio), PalmB vs DMSO",~ 3 fold
